Laboratory results published in US12268676B2, “Antiviral applications of picolinic acid and its derivatives” (INDIAN INSTITUTE OF SCIENCE, priority 2021, dated 2025).

Test system: SARS-CoV-2 variants of concern (Alpha, Beta, Gamma, Delta)
Assay type: cell-based

SMILES: O=C(O)c1ccccn1 [PA, pyridine-2-carboxylic acid]
- viral load abrogated by: ~1 log
